Legend:
Experiment in all cases: PhosphoSens CSox based kinase assay
Assay type in all cases: biochemical
FGFR 2 = target: T1, FGFR 2 (Homo sapiens, UniProt P21802); conditions: 5 μM HU-MCA-13
T1 construct: purchased Carna 08-134
Excerpt: (§1) The initial focus was to measure the modulatory activity in vitro of MCA-13 on protein kinases which were reported to be involved in induction of neurite outgrowth.[18],[43] To do this, we took advantage of a powerful method to measure the activity of recombinant protein kinases using a homogeneous and continuous (kinetic) format, where the level of chelation-enhanced fluorescence (CHEF) is directly proportional to the amount of phosphorylated, real-time sensors consisting of sulfonamido-oxine (Sox) chromophore linked to a peptide or protein substrates of selective kinases.[44] This assay is ideal for elucidating drug mechanism of action and is increasingly being applied earlier in the drug development workflow to address off target effects and/or the challenges and opportunities for next generation protein kinase inhibitors.[45] Since neurotrophins induce neurite outgrowth by activating the different tropomyosin kinase receptors (Trk), and small molecules agonists of Trk receptors can selectively activate Trks,[46] we first investigated the ability of HU-MCA-13 to modulate TRKA, TRKB and TRKC phosphorylation activities (Supporting Information, Figure S3-2). […] The TRKs constructs used in the assay contained only the intracellular kinase domain (amino acids 442–786) and therefore presently we cannot exclude that HU-MCA-13 may interact with the TRKs extracellular domain thereby inducing the conformational change required for the kinase domain activation. […] Moreover, no effects of HU-MCA-13were found on other kinases (ASK1, ERK2, JNK3, p38α, CDK5, KDR-VEGFR, AKT1, GSK3β, PDGFRβ, PKACα, PKC, CK1, IKKβ) which stimulate neurite outgrowth. Also, no effects were observed of HU-MCA-13 on kinases (EGFR, IGF1R, FGFR 1 and 2, CAMK2α,) which inhibit neurite outgrowth or calcineurin phosphatase which dephosphorylates the neurite outgrowth stimulatory protein, cofilin.[47]
(§2) MCA-13 safety b y in vitro eval uati on usi ng Phos pho Sens®C Soxb ased kinase […]
(§3) Method: Kinase Activity Measurements
(§4) Kinase activity was measured continuously using the PhosphoSens®technology (AssayQuant Technologies Inc., Marlborough, MA) according to the manufacturers’ recommendations (http://www.assayquant.com/) . This one-step homogeneous assay use s chelation-enh anced fluorescence via optimized substrate sensors unique for each kinase, containing the unnatural fluorogenic amino-acid Sox.
(§5) The following kinases which, upon stimulation or inhibition with small molecule modulators, induced neurite outgrowth, were obtained from different companies and were used in this study at the following concentrations: 2.
(§6) 25 µL final reaction volume including : 2.5 µl Sox-based substrate (10 x), 17.5 µl reaction mix with AT P, 5.0 µL Kinase [5x in EDB (Enzyme Dilution Buffer : 20 mM TRIS, pH 8.0, 0.01% Brij -35, 0.1 mM EGTA, 5% Glycerol, 1 mM DTT, 1 mg/mL Bovine Serum Albumin]. 5-45 min preincubation (all except EDB/kinase) at 30 °C of substrate in reaction mix and ATP ensuring that the progress kinetic curve for the background fluorescence w as flat. Reaction was run at 30 °C for […]
(§7) Final Reaction Conditions.
(§8) Protein kinase activity was determined in 54 mM HEPES, pH 7.5 1 mM ATP 1.2 mM DTT (none in ASK1) 0.012% Brij-35 1% glycerol 0.2 mg/ml BSA 0.52 mM EGTA (none in assays of CAMK2α, PKCε, PKCι, Calcineurin A/B) 140 µM phosphatidylserine/3.8 µM diacylglycerol (PKCε, PKCι only) 5 ng/µl calmodulin/0.4 mM CaCl2 (CAMK2α, Calcineurin A/B only) 10 mM […]
(§9) IKKβ, AKT1, GSK3β, PKCε, PKCι, PKACα, KDR, CK1δ, EGFR, ASK1, IGF1R, CAMK2α, DLK, FGFR2, FGFR1) in the presence or absence of 5 µ M H U-MCA-13 test compound. All components e xcept enzyme were equilibrated to 30 °C prior to setting up reactions run in Corning, 384-well, white flat round bottom polystyrene NBS microplates (Cat. #3824) after sealing using optically-clear adhesive film [TopSealA -Plus plate seal, PerkinElmer (Cat. #6050185)], applied with a roller to eliminate evaporation and resulting drift. Europium was added to a final […]

PKACα = target: T2, PKACα (Homo sapiens, UniProt P17612); conditions: 5 μM HU-MCA-13
T2 construct: PKACα, amino acids 1 -351, Carna (cat. & lot #: 01 -127/10CBS -0315N)/; purchased Carna 01-127
Excerpt: as §1, §2, §3, §4, §5, §6, §7, §8, §9

IGF1R = target: T3, IGF1R (Homo sapiens, UniProt P08069); conditions: 5 μM HU-MCA-13
T3 construct: amino acids 959-1367, Carna (cat. & lot #: 08); purchased Carna 08-141
Excerpt: as §1, §2, §3, §4, §5, §6, §7, §8, §9

GSK3β = target: T4, GSK3β (Homo sapiens, UniProt P49841); conditions: 5 μM HU-MCA-13
T4 construct: GSK3β, amino acids 1 -420, Carna (cat. & lot #: 04-141/13CBS-; purchased Carna 04-141
Excerpt: as §1, §2, §3, §4, §5, §6, §7, §8, §9

CK1 = target: T5, CK1 (Homo sapiens, UniProt P48730); conditions: 5 μM HU-MCA-13
T5 construct: CK1δ, amino acids 1 -294, Carna; purchased Carna 03-103
Excerpt: as §1, §2, §3, §4, §5, §6, §7, §8, §9

PDGFRβ = target: T6, PDGFRβ (Homo sapiens, UniProt P09619); conditions: 5 μM HU-MCA-13
T6 construct: PDGFRβ, amino acids 557 -1106, Carna; purchased Carna 08-158
Excerpt: as §1, §2, §3, §4, §5, §6, §7, §8, §9

IKKβ = target: T7, IKKβ (Homo sapiens, UniProt O14920); conditions: 5 μM HU-MCA-13
T7 construct: purchased Invitrogen PV3836
Excerpt: as §1, §2, §3, §4, §5, §6, §7, §8, §9

FGFR 1 = target: T8, FGFR 1 (Homo sapiens, UniProt P11362); conditions: 5 μM HU-MCA-13
T8 construct: 396-820, Carna (cat. & lot #: 08); purchased Carna 08-133
Excerpt: as §1, §2, §3, §4, §5, §6, §7, §8, §9

JNK3 = target: T9, JNK3 (Homo sapiens, UniProt P53779); conditions: 5 μM HU-MCA-13
T9 construct: JNK 3, amino acids 1 -426, Carna; purchased Carna 04-150
Excerpt: as §1, §2, §3, §4, §5, §6, §7, §8, §9

PKC = conditions: 5 μM HU-MCA-13
Excerpt: as §1, §2, §3, §4, §5, §6, §7, §8, §9

TRK B = target: T10, TRK B (Homo sapiens, UniProt Q16620); conditions: 5 μM HU-MCA-13; intracellular kinase domain
T10 construct: TRKB, amino acids 456 -822, BPS Bio; purchased BPS Bio 40281 (lot 130826)
Excerpt: as §1, §2, §3, §4, §5, §6, §7, §8, §9

p38α = target: T11, p38α (Homo sapiens, UniProt Q16539); conditions: 5 μM HU-MCA-13
T11 construct: p38α, amino acids 9-352, Carna (cat. & lot #: 04-152,; purchased Carna 04-152
Excerpt: as §1, §2, §3, §4, §5, §6, §7, §8, §9

ERK2 = target: T12, ERK2 (Homo sapiens, UniProt P28482); conditions: 5 μM HU-MCA-13
T12 construct: ERK2, amino acids 1-360, Carna; purchased Carna 04-143
Excerpt: as §1, §2, §3, §4, §5, §6, §7, §8, §9

ASK1 = target: T13, ASK1 (Homo sapiens, UniProt Q99683); conditions: 5 μM HU-MCA-13
T13 construct: ASK1, amino acids 1-1374, Invitrogen; purchased Invitrogen PV3809
Excerpt: as §1, §2, §3, §4, §5, §6, §7, §8, §9

T13 sequence (Q99683 whole entry, the tested form may be a part): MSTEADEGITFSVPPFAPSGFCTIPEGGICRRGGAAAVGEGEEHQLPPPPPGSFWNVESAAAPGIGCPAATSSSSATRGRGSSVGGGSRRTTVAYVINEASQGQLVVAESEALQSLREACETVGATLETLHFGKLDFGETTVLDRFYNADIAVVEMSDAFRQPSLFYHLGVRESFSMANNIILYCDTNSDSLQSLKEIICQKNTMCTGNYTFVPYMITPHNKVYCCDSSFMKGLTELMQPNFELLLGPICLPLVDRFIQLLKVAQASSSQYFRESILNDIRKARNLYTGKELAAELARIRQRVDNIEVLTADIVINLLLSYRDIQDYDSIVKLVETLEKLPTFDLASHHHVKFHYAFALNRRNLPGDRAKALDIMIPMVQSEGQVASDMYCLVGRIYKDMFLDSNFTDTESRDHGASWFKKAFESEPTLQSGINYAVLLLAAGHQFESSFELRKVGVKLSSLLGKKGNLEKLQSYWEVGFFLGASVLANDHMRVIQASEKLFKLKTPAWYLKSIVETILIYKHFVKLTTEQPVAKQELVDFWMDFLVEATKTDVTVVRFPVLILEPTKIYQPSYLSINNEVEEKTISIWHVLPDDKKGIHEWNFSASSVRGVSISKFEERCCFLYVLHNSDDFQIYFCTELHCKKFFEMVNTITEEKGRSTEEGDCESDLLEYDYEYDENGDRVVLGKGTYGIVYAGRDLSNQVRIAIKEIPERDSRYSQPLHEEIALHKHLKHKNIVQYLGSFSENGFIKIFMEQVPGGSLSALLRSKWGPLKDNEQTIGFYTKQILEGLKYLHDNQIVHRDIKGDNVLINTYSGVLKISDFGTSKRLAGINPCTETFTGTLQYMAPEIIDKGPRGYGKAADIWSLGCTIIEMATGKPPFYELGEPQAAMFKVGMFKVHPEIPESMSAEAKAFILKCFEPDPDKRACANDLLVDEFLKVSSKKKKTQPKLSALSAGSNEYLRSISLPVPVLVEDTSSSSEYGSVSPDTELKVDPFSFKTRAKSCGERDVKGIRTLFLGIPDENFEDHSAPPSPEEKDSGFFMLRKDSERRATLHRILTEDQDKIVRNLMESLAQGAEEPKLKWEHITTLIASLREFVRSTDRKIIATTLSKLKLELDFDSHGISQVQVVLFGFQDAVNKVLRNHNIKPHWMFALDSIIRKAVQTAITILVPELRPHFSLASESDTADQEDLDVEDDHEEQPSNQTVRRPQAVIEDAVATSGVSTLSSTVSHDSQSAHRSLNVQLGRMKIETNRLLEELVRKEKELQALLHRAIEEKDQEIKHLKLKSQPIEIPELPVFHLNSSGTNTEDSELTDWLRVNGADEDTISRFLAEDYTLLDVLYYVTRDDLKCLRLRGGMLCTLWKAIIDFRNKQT
T5 sequence (P48730 1-294): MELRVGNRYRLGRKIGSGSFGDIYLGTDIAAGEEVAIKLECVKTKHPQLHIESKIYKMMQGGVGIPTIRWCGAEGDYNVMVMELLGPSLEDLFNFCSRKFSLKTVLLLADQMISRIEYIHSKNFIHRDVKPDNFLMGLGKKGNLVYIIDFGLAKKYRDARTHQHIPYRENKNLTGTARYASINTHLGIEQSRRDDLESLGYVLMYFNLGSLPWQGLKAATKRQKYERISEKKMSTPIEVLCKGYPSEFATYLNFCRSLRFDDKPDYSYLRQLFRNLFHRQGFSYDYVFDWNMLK
T6 sequence (P09619 557-1106): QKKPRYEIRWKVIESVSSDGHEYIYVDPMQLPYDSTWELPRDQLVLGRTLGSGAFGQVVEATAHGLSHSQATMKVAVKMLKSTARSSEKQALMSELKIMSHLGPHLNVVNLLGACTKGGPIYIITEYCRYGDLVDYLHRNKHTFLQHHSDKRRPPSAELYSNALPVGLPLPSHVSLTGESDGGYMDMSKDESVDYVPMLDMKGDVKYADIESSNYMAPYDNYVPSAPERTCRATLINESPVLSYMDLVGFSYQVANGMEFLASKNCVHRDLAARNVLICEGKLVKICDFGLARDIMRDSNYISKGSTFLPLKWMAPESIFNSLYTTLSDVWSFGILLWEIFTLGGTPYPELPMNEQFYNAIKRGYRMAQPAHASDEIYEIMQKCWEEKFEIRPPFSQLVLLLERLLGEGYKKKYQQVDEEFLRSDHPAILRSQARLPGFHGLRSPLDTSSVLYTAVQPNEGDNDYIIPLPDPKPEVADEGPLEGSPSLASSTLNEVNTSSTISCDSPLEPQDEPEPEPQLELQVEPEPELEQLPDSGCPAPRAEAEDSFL
T1 sequence (P21802 399-821): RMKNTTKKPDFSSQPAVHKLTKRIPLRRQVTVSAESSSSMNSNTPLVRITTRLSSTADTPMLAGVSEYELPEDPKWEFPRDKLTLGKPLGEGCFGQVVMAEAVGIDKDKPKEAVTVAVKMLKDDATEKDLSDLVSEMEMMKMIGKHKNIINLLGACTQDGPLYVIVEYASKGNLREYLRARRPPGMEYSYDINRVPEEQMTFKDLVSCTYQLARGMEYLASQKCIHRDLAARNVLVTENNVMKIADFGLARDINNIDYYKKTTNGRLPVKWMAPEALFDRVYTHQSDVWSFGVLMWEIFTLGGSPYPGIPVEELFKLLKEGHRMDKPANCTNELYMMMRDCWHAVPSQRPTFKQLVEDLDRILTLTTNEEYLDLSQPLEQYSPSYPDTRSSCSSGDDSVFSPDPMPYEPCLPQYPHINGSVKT
T10 sequence (Q16620 456-822): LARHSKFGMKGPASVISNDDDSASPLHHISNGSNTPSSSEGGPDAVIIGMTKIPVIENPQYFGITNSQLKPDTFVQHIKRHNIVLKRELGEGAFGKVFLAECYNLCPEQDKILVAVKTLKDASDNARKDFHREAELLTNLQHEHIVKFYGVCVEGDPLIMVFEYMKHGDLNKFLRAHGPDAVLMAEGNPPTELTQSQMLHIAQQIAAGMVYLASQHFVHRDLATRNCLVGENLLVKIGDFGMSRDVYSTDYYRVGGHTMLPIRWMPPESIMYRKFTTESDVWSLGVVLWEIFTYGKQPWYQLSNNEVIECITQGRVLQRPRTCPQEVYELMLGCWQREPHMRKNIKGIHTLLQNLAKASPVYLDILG
T4 sequence (P49841 whole entry, the tested form may be a part): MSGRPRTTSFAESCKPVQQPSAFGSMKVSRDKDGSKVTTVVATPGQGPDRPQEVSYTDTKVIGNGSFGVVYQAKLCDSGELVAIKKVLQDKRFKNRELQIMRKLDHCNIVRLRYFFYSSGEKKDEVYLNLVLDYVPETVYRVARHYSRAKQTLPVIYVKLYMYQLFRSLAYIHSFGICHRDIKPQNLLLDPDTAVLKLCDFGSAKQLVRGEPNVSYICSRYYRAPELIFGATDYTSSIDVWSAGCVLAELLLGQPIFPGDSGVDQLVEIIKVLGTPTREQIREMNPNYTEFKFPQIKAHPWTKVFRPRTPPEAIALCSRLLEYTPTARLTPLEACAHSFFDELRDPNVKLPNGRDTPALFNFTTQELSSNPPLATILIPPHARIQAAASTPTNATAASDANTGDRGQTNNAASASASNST
T8 sequence (P11362 398-822): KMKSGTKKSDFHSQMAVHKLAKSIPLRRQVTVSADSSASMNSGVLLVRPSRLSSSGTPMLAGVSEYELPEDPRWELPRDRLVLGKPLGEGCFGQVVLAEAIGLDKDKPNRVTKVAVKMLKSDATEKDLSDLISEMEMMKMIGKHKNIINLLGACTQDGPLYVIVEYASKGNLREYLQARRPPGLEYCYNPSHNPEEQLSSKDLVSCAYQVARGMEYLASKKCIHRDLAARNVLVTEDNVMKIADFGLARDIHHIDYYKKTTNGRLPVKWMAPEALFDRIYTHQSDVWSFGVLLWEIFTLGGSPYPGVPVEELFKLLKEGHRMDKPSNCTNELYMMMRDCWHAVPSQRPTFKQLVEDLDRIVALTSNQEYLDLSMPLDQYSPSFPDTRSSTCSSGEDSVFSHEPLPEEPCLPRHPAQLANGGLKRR
T3 sequence (P08069 959-1367): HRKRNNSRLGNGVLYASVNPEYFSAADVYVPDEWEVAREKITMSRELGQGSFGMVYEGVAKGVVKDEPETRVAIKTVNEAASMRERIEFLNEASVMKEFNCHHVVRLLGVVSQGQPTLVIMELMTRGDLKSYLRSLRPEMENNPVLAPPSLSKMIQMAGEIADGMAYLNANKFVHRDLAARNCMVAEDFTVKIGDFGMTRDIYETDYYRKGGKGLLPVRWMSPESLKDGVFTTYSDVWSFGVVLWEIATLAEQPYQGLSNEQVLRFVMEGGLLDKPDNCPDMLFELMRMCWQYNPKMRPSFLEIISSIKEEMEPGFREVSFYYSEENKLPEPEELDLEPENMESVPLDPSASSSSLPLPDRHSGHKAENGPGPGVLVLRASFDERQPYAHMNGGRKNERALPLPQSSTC
T9 sequence (P53779 39-464): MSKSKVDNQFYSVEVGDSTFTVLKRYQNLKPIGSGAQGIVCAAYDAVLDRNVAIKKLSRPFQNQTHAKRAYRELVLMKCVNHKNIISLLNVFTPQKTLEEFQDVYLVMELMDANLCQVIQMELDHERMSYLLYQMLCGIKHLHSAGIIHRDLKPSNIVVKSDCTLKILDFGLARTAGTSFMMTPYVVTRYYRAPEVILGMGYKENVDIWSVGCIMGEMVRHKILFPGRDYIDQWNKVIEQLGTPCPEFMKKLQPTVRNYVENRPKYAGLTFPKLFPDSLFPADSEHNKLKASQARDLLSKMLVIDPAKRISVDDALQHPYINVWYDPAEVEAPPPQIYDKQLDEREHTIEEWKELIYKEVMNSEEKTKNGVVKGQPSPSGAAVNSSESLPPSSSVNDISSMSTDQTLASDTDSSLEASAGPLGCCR

C=CCC1CCCC(CCC(=O)O)C1=C (centres unmarked) [HU-MCA-13, 3-(3-allyl-2-methylenecyclohexyl)propanoic acid]
no effects: effect on kinase activity (FGFR 2) | effect on kinase activity (PKACα) | effect on kinase activity (IGF1R) | effect on kinase activity (GSK3β) | effect on kinase activity (CK1) | effect on kinase activity (PDGFRβ) | effect on kinase activity (IKKβ) | effect on kinase activity (FGFR 1) | effect on kinase activity (JNK3) | effect on kinase activity (PKC) | modulation of phosphorylation activity (TRK B) | effect on kinase activity (p38α) | effect on kinase activity (ERK2) | effect on kinase activity (ASK1)
